For 29 compounds, IC50 results are on record in patent publication US6589984B1, “Benzofurylpyrone derivatives” (Teijin Limited, priority 1998, dated 2003).

In one test the test system is Human hepatic cancer cells HepG2. Briefly: TG production inhibiting activity (14C-acetic acid incorporation into TG) in HepG2 cells. It is filed as cell-based. The following applies: Homo sapiens, HepG2; group criterion, alternatives: IC50 at least 10 μM and less than 100 μM, or at least 5% and less than 30% inhibition at 1 μM, or at least 30% and less than 50% inhibition at 10 μM. The method in brief:
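HepG2 cells cultured 6 days in eRDF with 10% bovine serum, then in serum-free eRDF given compound (diluted from 20 mM DMSO stock) plus 14C-acetic acid for one day at 37 °C, 5% CO2. Lipids extracted with hexane/isopropanol 2:1 and separated by TLC; the TG spot was cut out and counted by liquid scintillation.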
`Cc1c(-c2cc3cc(OCc4ccc(C(F)(F)F)cc4)ccc3o2)oc(=O)c(C)c1O` [Example 124, 3,5-dimethyl-4-hydroxy-6-(5-(4-(trifluoromethyl)benzyloxy)benzofuran-2-yl)-2H-pyran-2-one]: the half-maximal inhibitory concentration (IC50) is 10 to 100 µM.
On the same count and under the same terms, next, `Cc1c(-c2cc3cc(OCc4cccc(Br)c4)ccc3o2)oc(=O)c(C)c1O` [Example 83, 6-(5-(3-bromobenzyloxy)benzofuran-2-yl)-3,5-dimethyl-4-hydroxy-2H-pyran-2-one]: 10 to 100 µM; `Cc1c(-c2cc3cc(OCCN4CCOCC4)ccc3o2)oc(=O)c(C)c1O` [Example 115, 3,5-dimethyl-4-hydroxy-6-(5-(2-(morpholin-4-yl)ethoxy)benzofuran-2-yl)-2H-pyran-2-one]: 10 to 100 µM.
On the same count and under the same terms, next, `CC=CCc1c(-c2cc3ccccc3o2)oc(=O)c(C)c1O` [Example 68, 6-(benzofuran-2-yl)-5-(2-butenyl)-4-hydroxy-3-methyl-2H-pyran-2-one]: 10 to 100 µM; `Cc1c(-c2cc3cc(OCCOCc4ccccc4)ccc3o2)oc(=O)c(C)c1O` [Example 213, 6-(5-(2-(benzyloxy)ethoxy)benzofuran-2-yl)-3,5-dimethyl-4-hydroxy-2H-pyran-2-one]: 10 to 100 µM; `Cc1c(-c2cc3cc(OCc4ccccc4[N+](=O)[O-])ccc3o2)oc(=O)c(C)c1O` [Example 230, 3,5-dimethyl-4-hydroxy-6-(5-(2-nitrobenzyloxy)benzofuran-2-yl)-2H-pyran-2-one]: 10 to 100 µM.
The same measure, in the same setting: next, `Cc1c(-c2cc3ccc(O)cc3o2)oc(=O)c(C)c1O` [Example 272, 3,5-dimethyl-4-hydroxy-6-(6-hydroxybenzofuran-2-yl)-2H-pyran-2-one]: 10 to 100 µM.
In turn, `Cc1c(-c2cc3cc(OCCCCNC(=O)OC(C)(C)C)ccc3o2)oc(=O)c(C)c1O` [Example 224, 6-(5-(4-(t-butoxycarbonylamino)butoxy)benzofuran-2-yl)-3,5-dimethyl-4-hydroxy-2H-pyran-2-one] displayed an IC50 of 10 to 100 µM.
As for `Cc1c(-c2cc3cc(OCCCc4ccccc4)ccc3o2)oc(=O)c(C)c1O` [Example 203, 3,5-dimethyl-4-hydroxy-6-(5-(3-phenylpropoxy)benzofuran-2-yl)-2H-pyran-2-one], the concentration for half-maximal inhibition (IC50) was in the range of 10 to 100 µM.
Same read-out and setting: next, `CC(=O)Oc1c(C)c(-c2cc3ccc(N(C)C)cc3o2)oc(=O)c1C` [Example 23, 4-acetyloxy-3,5-dimethyl-6-(6-dimethylaminobenzofuran-2-yl)-2H-pyran-2-one]: 10 to 100 µM; `Cc1c(-c2cc3cc(OC(C)c4ccccc4C(F)(F)F)ccc3o2)oc(=O)c(C)c1O` (centres unmarked) [Example 144, 3,5-dimethyl-4-hydroxy-6-(5-(1-(2-(trifluoromethyl)phenyl)ethoxy)benzofuran-2-yl)-2H-pyran-2-one]: 10 to 100 µM.
Still for that read-out and setting: next, `CC(=O)Oc1c(C)c(-c2cc3cc(C=O)ccc3o2)oc(=O)c1C` [Example 8, 4-acetyloxy-3,5-dimethyl-6-(5-formylbenzofuran-2-yl)-2H-pyran-2-one]: 10 to 100 µM; `CC(=O)Oc1ccc2cc(-c3oc(=O)c(C)c(OC(C)=O)c3C)oc2c1` [Example 275, 4-acetyloxy-6-(6-acetyloxybenzofuran-2-yl)-3,5-dimethyl-2H-pyran-2-one]: 10 to 100 µM.
On the same count and under the same terms, in the case of `Cc1c(-c2cc3c(OCc4ccccc4)cccc3o2)oc(=O)c(C)c1O` [Example 258, 6-(4-benzyloxybenzofuran-2-yl)-3,5-dimethyl-4-hydroxy-2H-pyran-2-one] it was 10 to 100 µM; in that of `Cc1c(-c2cc3ccccc3o2)oc(=O)c(C(C)C)c1O` [Example 38, 6-(benzofuran-2-yl)-4-hydroxy-3-isopropyl-5-methyl-2H-pyran-2-one], 10 to 100 µM.
Regarding `C=CCCCCOc1ccc2oc(-c3oc(=O)c(C)c(O)c3C)cc2c1` [Example 191, 3,5-dimethyl-6-(5-(5-hexen-1-yloxy)benzofuran-2-yl)-4-hydroxy-2H-pyran-2-one], the IC50 fell in the range of 10 to 100 µM.

Staying with this test, now noted: Homo sapiens, HepG2; group criterion, alternatives: IC50 less than 10 μM, or at least 30% inhibition at 1 μM, or at least 50% inhibition at 10 μM.
Turning to `Cc1c(O)c(CC2CCCC2)c(-c2cc3ccccc3o2)oc1=O` [Example 66, 6-(benzofuran-2-yl)-5-cyclopentylmethyl-4-hydroxy-3-methyl-2H-pyran-2-one], the half-inhibitory concentration (IC50) is less than 10 µM.
Take `Cc1c(-c2cc3ccccc3o2)oc(=O)c(C)c1OC(=O)c1ccccc1` [Example 3, 6-(benzofuran-2-yl)-4-benzoyloxy-3,5-dimethyl-2H-pyran-2-one]: the IC50 was less than 10 µM.
As for `Cc1c(-c2cc3cc(OCC4CCCN(C)C4)ccc3o2)oc(=O)c(C)c1O` (centres unmarked) [Example 97, 3,5-dimethyl-4-hydroxy-6-(5-(1-methylpiperidin-3-ylmethoxy)benzofuran-2-yl)-2H-pyran-2-one], the IC50 was less than 10 µM.
`COC(=O)c1ccc2oc(-c3oc(=O)c(C)c(OC(C)=O)c3C)cc2c1` [Example 259, 4-acetyloxy-3,5-dimethyl-6-(5-(methoxycarbonyl)benzofuran-2-yl)-2H-pyran-2-one] registered an IC50 of less than 10 µM.
`Cc1c(O)c(Cc2ccccc2)c(-c2cc3ccccc3o2)oc1=O` [Example 36, 6-(benzofuran-2-yl)-5-benzyl-4-hydroxy-3-methyl-2H-pyran-2-one]: the half-inhibitory concentration (IC50) is less than 10 µM.
`Cc1c(-c2cc3cc(N(C)C(=O)c4cccs4)ccc3o2)oc(=O)c(C)c1O` [Example 252, 3,5-dimethyl-4-hydroxy-6-(5-(N-methyl-N-(2-thienylcarbonyl)amino)benzofuran-2-yl)-2H-pyran-2-one] had an IC50 of less than 10 µM.
On the same count and under the same terms, in the case of `Cc1c(-c2cc3cc(C(=O)N(C)c4ccncc4)ccc3o2)oc(=O)c(C)c1O` [Example 309, 3,5-dimethyl-4-hydroxy-6-(5-(N-methyl-N-(4-pyridyl)carbamoyl)benzofuran-2-yl)-2H-pyran-2-one] it was less than 10 µM; in that of `CC(=O)NC(CC(=O)N1CCOCC1)C(=O)Oc1c(C)c(-c2cc3ccccc3o2)oc(=O)c1C` (centres unmarked) [Example 64, 6-(benzofuran-2-yl)-3,5-dimethyl-4-(2-acetylamino-4-(morpholin-4-yl)-4-oxobutyryloxy)-2H-pyran-2-one], less than 10 µM.
The same measure, in the same setting: next, `Cc1c(-c2cc3cc(OCc4ccc(F)cc4)ccc3o2)oc(=O)c(C)c1O` [Example 228, 3,5-dimethyl-6-(5-(4-fluorobenzyloxy)benzofuran-2-yl)-4-hydroxy-2H-pyran-2-one]: less than 10 µM; `Cc1c(-c2cc3cc(OCc4cccc(Cl)c4)ccc3o2)oc(=O)c(C)c1O` [Example 242, 6-(5-(3-chlorobenzyloxy)benzofuran-2-yl)-3,5-dimethyl-4-hydroxy-2H-pyran-2-one]: less than 10 µM.
On the same count and under the same terms, next, `Cc1c(-c2cc3cc(OCc4cccc(C(F)(F)F)c4)ccc3o2)oc(=O)c(C)c1O` [Example 122, 3,5-dimethyl-4-hydroxy-6-(5-(3-(trifluoromethyl)benzyloxy)benzofuran-2-yl)-2H-pyran-2-one]: less than 10 µM; `Cc1c(-c2cc3cc(N(C)C(=O)c4ccccc4)ccc3o2)oc(=O)c(C)c1O` [Example 250, 6-(5-(N-benzoyl-N-methylamino)benzofuran-2-yl)-3,5-dimethyl-4-hydroxy-2H-pyran-2-one]: less than 10 µM.
Compound `Cc1c(-c2cc3cc(OCc4ccccc4)ccc3o2)oc(=O)c(C)c1OC(=O)CNC(=O)OC(C)(C)C` [Example 52, 6-(5-benzyloxybenzofuran-2-yl)-4-(2-(t-butoxycarbonylamino)acetyloxy)-3,5-dimethyl-2H-pyran-2-one] displayed an IC50 of less than 10 µM.
